Reference: patent US20230011869A1 (Hoffmann-La Roche Inc., priority 2018, published 2023)
Structures can show the parent of a compound that is named as a salt.

System: Acinetobacter baumannii ATCC17961
Assay: Antimicrobial susceptibility testing: 90% growth inhibitory concentration (IC90) determination, Iso-Sensitest broth
Type: cell-based
Details: Acinetobacter baumannii, ATCC17961, 16 h, 90% growth inhibitory concentration, Acinetobacter baumannii ATCC17961, Iso-Sensitest broth, OD 600 nm over 16 h; read-out: ATCC17961 IC90
Description: Antimicrobial Susceptibility Testing:
90% Growth Inhibitory Concentration (IC90) Determination
The in vitro antimicrobial activity of the compounds was determined according to the following procedure:
The assay used a 10-points Iso-Sensitest broth medium to measure quantitatively the in vitro activity of the compounds against Acinetobacter baumannii ATCC17978 and Acinetobacter baumannii ATCC17961.
Stock compounds in DMSO were serially twofold diluted (e.g. range from 50 to 0.097 μM final concentration) in 384 wells microtiter plates and inoculated with 49 μl the bacterial suspension in Iso-Sensitest medium to have a final cell concentration of 5×10^(5) CFU/ml in a final volume/well of 50 ul/well. Microtiter plates were incubated at 35±2° C.
Bacterial cell growth was determined with the measurement of optical density at λ=600 nm each 20 minutes over a time course of 16 h. Growth inhibition was calculated during the logarithmic growth of the bacterial cells with determination of the concentration inhibiting 50% (IC50) and 90% (IC90) of the growth.
Table 1 provides the 90% growth inhibitory concentrations (IC90) in micromoles per liter of the compounds of present invention obtained against the strain Acinetobacter baumannii ATCC17978 and Acinetobacter baumannii ATCC17961.

| Structure (SMILES) | IC90 [nM] |
| --- | --- |
| Cc1cc(Nc2nccn3c(-c4ccc(OCC#N)c(F)c4Cl)cnc23)ccc1C(=O)N1CCN(C(=O)C2CCNCC2)CC1 [Example 209, 2-[3-chloro-2-fluoro-4-[8-[3-methyl-4-[4-(piperidine-4-carbonyl)piperazine-1-carbonyl]anilino]imidazo[1,2-a]pyrazin-3-yl]phenoxy] acetonitrile formate] | 68 |
| Cc1cc(Nc2nccn3c(-c4ccc(OCC#N)c(F)c4Cl)cnc23)ccc1C(=O)N1CCN(C(=O)[C@@H]2C[C@@H](O)CN2)CC1 [Example 211, 2-[3-chloro-2-fluoro-4-[8-[4-[4-[(2S,4R)-4-hydroxypyrrolidine-2-carbonyl]piperazine-1-carbonyl]-3-methyl-anilino]imidazo[1,2-a]pyrazin-3-yl]phenoxy] acetonitrile formate] | 42 |
| Cc1cc(Nc2nccn3c(-c4ccc(OCC#N)c(F)c4Cl)cnc23)ccc1C(=O)N1CCN(C(=O)[C@@H]2CCNC2)CC1 [Example 212, 2-[3-chloro-2-fluoro-4-[8-[3-methyl-4-[4-[(3R)-pyrrolidine-3-carbonyl]piperazine-1-carbonyl]anilino]imidazo[1,2-a]pyrazin-3-yl]phenoxy] acetonitrile formate] | 34 |
| Cc1cc(Nc2nccn3c(-c4ccc(OCC#N)c(F)c4Cl)cnc23)ccc1C(=O)N1CCN(C(=O)[C@H]2CCNC2)CC1 [Example 213, 2-[3-chloro-2-fluoro-4-[8-[3-methyl-4-[4-[(3S)-pyrrolidine-3-carbonyl]piperazine-1-carbonyl]anilino]imidazo[1,2-a]pyrazin-3-yl]phenoxy] acetonitrile formate] | 33 |
| Cc1cc(Nc2nccn3c(-c4ccc(OCC#N)c(F)c4Cl)cnc23)ccc1C(=O)N1CCN(C(=O)C2(O)CCNCC2)CC1 [Example 214, 2-[3-chloro-2-fluoro-4-[8-[4-[4-(4-hydroxypiperidine-4-carbonyl)piperazine-1-carbonyl]-3-methyl-anilino]imidazo[1,2-a]pyrazin-3-yl]phenoxy] acetonitrile formate] | 41 |
| Cc1cc(Nc2nccn3c(-c4ccc(OCC#N)c(F)c4Cl)cnc23)ccc1C(=O)N1CCN(C(=O)[C@H]2CCNC[C@@H]2O)CC1 [Example 220, 2-[3-chloro-2-fluoro-4-[8-[4-[4-[(3R,4S)-3-hydroxypiperidine-4-carbonyl]piperazine-1-carbonyl]-3-methyl-anilino]imidazo[1,2-a]pyrazin-3-yl]phenoxy] acetonitrile formate] | 64 |
| Cc1cc(Nc2nccn3c(-c4ccc(OCC#N)c(F)c4Cl)cnc23)ccc1C(=O)N1CCN(C(=O)[C@@H]2CCNC[C@H]2O)CC1 [Example 221, 2-[3-chloro-2-fluoro-4-[8-[4-[4-[(3S,4R)-3-hydroxypiperidine-4-carbonyl]piperazine-1-carbonyl]-3-methyl-anilino]imidazo[1,2-a]pyrazin-3-yl]phenoxy] acetonitrile formate] | 59 |
| Cc1cc(Nc2nccn3c(-c4ccc(OCC#N)c(F)c4Cl)cnc23)ccc1C(=O)N1CCN(C(=O)[C@H]2CCNC[C@H]2O)CC1 [Example 222, 2-[3-chloro-2-fluoro-4-[8-[4-[4-[(3S,4S)-3-hydroxypiperidine-4-carbonyl]piperazine-1-carbonyl]-3-methyl-anilino]imidazo[1,2-a]pyrazin-3-yl]phenoxy] acetonitrile formate] | 38 |
| COc1ccc(-c2cnc3c(Nc4ccc(C(=O)N5CCN(C(=O)[C@@H]6C[C@H](O)CN6)CC5)c(C)c4)nccn23)c(F)c1F [Example 227, [4-[[3-(2,3-difluoro-4-methoxy-phenyl)imidazo[1,2-a]pyrazin-8-yl]amino]-2-methyl-phenyl]-[4-[(2S,4S)-4-hydroxypyrrolidine-2-carbonyl]piperazin-1-yl]methanone] | 58 |
| CC[C@@]1(O)CN[C@H](C(=O)N2CCN(C(=O)c3ccc(Nc4nccn5c(-c6ccc(OCC#N)c(F)c6F)cnc45)cc3C)CC2)C1 [Example 229, 2-[4-[8-[4-[4-[(2S,4S)-4-ethyl-4-hydroxy-pyrrolidine-2-carbonyl]piperazine-1-carbonyl]-3-methyl-anilino]imidazo[1,2-a]pyrazin-3-yl]-2,3-difluoro-phenoxy]acetonitrile formate] | 44 |
| Cc1cc(Nc2nccn3c(-c4ccc(OCC#N)c(F)c4F)cnc23)ccc1C(=O)N1CCN(C(=O)[C@@H]2C[C@@](C)(O)CN2)CC1 [Example 231, 2-[2,3-difluoro-4-[8-[4-[4-[(2S,4R)-4-hydroxy-4-methyl-pyrrolidine-2-carbonyl]piperazine-1-carbonyl]-3-methyl-anilino]imidazo[1,2-a]pyrazin-3-yl]phenoxy] acetonitrile formate] | 53 |
| COc1ccc(-c2cnc3c(Nc4ccc(C(=O)N5CCN(C(=O)[C@H]6NC[C@H](O)[C@@H]6O)CC5)c(C)c4)nccn23)cc1F [Example 233, ((2S,3R,4S)-3,4-dihydroxypyrrolidin-2-yl)(4-(4-((3-(3-fluoro-4-methoxyphenyl)imidazo[1,2-a]pyrazin-8-yl)amino)-2-methylbenzoyl)piperazin-1-yl)methanone hydrochloride] | 190 |
| COc1ccc(-c2cnc3c(Nc4ccc(C(=O)N5CCN(C(=O)[C@H]6NC[C@H](O)[C@@H]6O)CC5)c(C)c4)nccn23)c(F)c1F [Example 234, (4-(4-((3-(2,3-difluoro-4-methoxyphenyl)imida-zo[1,2-a]pyrazin-8-yl)amino)-2-methylbenzoyl)piper-azin-1-yl)((2S,3R,4S)-3,4-dihydroxypyrrolidin-2-yl)methanone] | 133 |
| COc1ccc(-c2cnc3c(Nc4ccc(C(=O)N5CCN(C(=O)[C@@H]6NC[C@@H](O)[C@H]6O)CC5)c(C)c4)nccn23)c(F)c1F [Example 235, (4-(4-((3-(2,3-difluoro-4-methoxyphenyl)imida-zo[1,2-a]pyrazin-8-yl)amino)-2-methylbenzoyl)piper-azin-1-yl)((2R,3S,4R)-3,4-dihydroxypyrrolidin-2-yl)methanone] | 117 |
| COc1ccc(-c2cnc3c(Nc4cc(C)c(C(=O)N5CCN(C(=O)[C@@H]6C[C@@H](O)CN6)CC5)c(F)c4)nccn23)c(F)c1F [Example 243, (4-(4-((3-(2,3-difluoro-4-methoxyphenyl)imidazo[1,2-a]pyrazin-8-yl)amino)-2-fluoro-6-methylbenzoyl)piperazin-1-yl)((2S,4R)-4-hydroxypyrrolidin-2-yl)methanone dihydrochloride] | 113 |
| COc1ccc(-c2cnc3c(Nc4cc(F)c(C(=O)N5CCN(C(=O)[C@@H]6C[C@@H](O)CN6)CC5)cc4F)nccn23)c(F)c1F [Example 244, (4-(4-((3-(2,3-difluoro-4-methoxyphenyl)imidazo[1,2-a]pyrazin-8-yl)amino)-2,5-difluorobenzoyl)piperazin-1-yl)((2S,4R)-4-hydroxypyrrolidin-2-yl)methanone] | 2730 |
| C#CCOc1ccc(-c2cnc3c(Nc4ccc(C(=O)N5CCN(C(=O)[C@@H]6C[C@@H](O)CN6)CC5)c(C)c4)nccn23)c(F)c1F [Example 248, [4-[[3-(2,3-difluoro-4-prop-2-ynoxy-phenyl)imidazo[1,2-a]pyrazin-8-yl]amino]-2-methyl-phenyl]-[4-[(2S,4R)-4-hydroxypyrrolidine-2-carbonyl]piperazin-1-yl]methanone] | 74 |
